In patent EP1593384A2, “Compositions for treatment of sexual dysfunction” (Palatin Technologies, Inc., priority 1999, dated 2005):

How the values were obtained:
human MC4-R = assay: Agonist activity by cAMP detection in transfected HEK 293 cells; type: cell-based; details: conclusion from cAMP results
Procedure: HEK 293 cells, stably transfected with human MC4-R, were used. […] Following incubation, the medium was aspirated and cell layers extracted. The total cAMP accumulation in fixed quantities of cell extract was determined by competitive immunoassay using the cAMP kit.

Sprague Dawley rats [1] = assay: Induced penile erection by intravenous injection; type: in vivo; details: for dose resulting in (equivalent) penile response: intravenous injection in rats; for efficacious dose, efficacy determined by induction of penile erection in 100% of animals: intravenous injection, rats; for % Rats with Penile Erection / Number of Erections/Rat/30 Minutes: intravenous
Sprague Dawley rats [2] = assay: Induced penile erection by intranasal administration (dosing study); type: in vivo; details: for % Rats with Penile Erection / Number of Erections/Rat/30 Minutes: intranasal
[3] = tested on: men with psychogenic erectile dysfunction; details: subcutaneous, 0.025 to 0.157 mg/kg body weight; cited from earlier work
MC3-R = details: read-out: RELATIVE BINDING (KI) MC3-R; competitive inhibition; transfected HEK 293 cells
Procedure: (§1) Relative binding was determined by competitive inhibition using α-MSH. B16-F1 melanoma cells were used as the source of MC1 receptors; HEK 293 cells, transfected with human melanocortin receptor sequences, were used as the source of MC3, MC4 and MC5 receptors; and Y1 cells were used as the source of MC2 receptors.

MC5-R = details: read-out: RELATIVE BINDING (KI) MC5-R; competitive inhibition; transfected HEK 293 cells
Procedure: as §1

MC1-R = details: read-out: RELATIVE BINDING (KI) MC1-R; competitive inhibition; B16-F1 melanoma cells as receptor source
Procedure: as §1

| Substance | agonist activity to MC4-R (human MC4-R) | dose resulting in (equivalent) penile response (Sprague Dawley rats [1]) | efficacious dose, efficacy determined by induction of penile erection in 100% of animals (Sprague Dawley rats [1]) | % Rats with Penile Erection (Sprague Dawley rats [2]; dose 100 µg/kg) [%] | Number of Erections/Rat/30 Minutes (Sprague Dawley rats [2]; dose 100 µg/kg) | % Rats with Penile Erection (Sprague Dawley rats [2]; dose 500 µg/kg) [%] | Number of Erections/Rat/30 Minutes (Sprague Dawley rats [2]; dose 500 µg/kg) | period in which the penile erection response primarily occurred (Sprague Dawley rats [2]; nasal administration, rats, 30 minutes) | treated men developing clinically apparent erections [3] | Ki (MC3-R) [nM] | % Rats with Penile Erection (Sprague Dawley rats [1]; dose 10.0 µg/kg) [%] | Number of Erections/Rat/30 Minutes (Sprague Dawley rats [1]; dose 10.0 µg/kg) | % Rats with Penile Erection (Sprague Dawley rats [1]; dose 100.0 µg/kg) [%] | Number of Erections/Rat/30 Minutes (Sprague Dawley rats [1]; dose 100.0 µg/kg) | Ki (MC5-R) [nM] | Ki (MC1-R) [nM] |
| --- | --- | --- | --- | --- | --- | --- | --- | --- | --- | --- | --- | --- | --- | --- | --- | --- |
| Ac-Nle-cyclo(-Asp-His-D-Phe-Arg-Trp-Lys)-OH [Compound 1] | exhibits agonist activity | 2 µg/kg of body weight | ≥ 1 µg/kg of body weight | – | – | – | – | – | – | – | – | – | – | – | – | – |
| Melanotan-II | – | 100 µg/kg of body weight | ≥ 100 µg/kg of body weight | 25 | 0.25 | 100 | 1.0 | 2nd and 3rd ten-minute period | 8 of 10 | 23.7 | 17 | 0.3 | 75 | 1.0 | 69.5 | 0.12 |
